Measured values: patent US8349823B2, “Treatment of renal cell carcinoma” (priority 2008, dated 2013)

Experiments:
[1] = system: renal cancers not expressing the VHL gene; settings: xenografted nude mice; cited from earlier work
renal cancer xenografts = settings: xenografts in nude mice, in some cases; cited from earlier work
[2] = system: human renal cell carcinomas (SKRC-52, 786-0, SKRC-17, SKRC-7 and SKRC-21); assay: Viability of human renal cell carcinoma cells for 7 days after 24 h exposure to orellanine; assay type: cell-based; settings: 400 μM orellanine for 24 h, then orellanine-free medium, observed six more days
Method: FIG. 1: Observation of the viability of cells from 5 different human renal cell carcinomas (primary tumors and metastases) during 7 days following 24 h of exposure to 400 μM orellanine (100 μg/ml culture medium. Viability is calculated by dividing the number of living cells in treated samples by the number of living cells in control samples (n=6). The gray area in the graph represents the period of orellanine incubation (24 h). The following days the cells were cultured in orellanine-free complete culture medium. The medium was changed at each viability measurement.
The pictures shown in FIGS. 2A and 2B were taken with the same magnification, and one week after incubation with orellanine/vehicle.
Cells harvested from 5 different human renal cell carcinomas (SKRC-52, 786-0, SKRC-17, SKRC-7 and SKRC-21), representing both mother tumors and metastatic growths, were cultured under standard conditions. When approximately 70% confluent and in rapid growth, the cells were exposed to medium containing Orellanine (400 μM) for 24 h.

[3] = system: human renal cell carcinomas (786-0 and SKRC7); assay: Dose/response effect of orellanine on renal cell carcinoma cells; assay type: cell-based; settings: single 24 h exposure
Method: Cells harvested from 2 different human renal cell carcinomas (SKRC-7, 786-0), representing both mother tumors and metastatic growths, were cultured under standard conditions. When approximately 70% confluent and in rapid growth, the cells were exposed to medium containing different concentrations of Orellanine […] for 24 h.

[4] = system: human renal cell carcinoma 786-0; assay: Repeated administration of a lower dose of orellanine, viability; assay type: cell-based; settings: for number of viable cells: viability 96 h after first dose
Method: FIG. 4: Effect of repeated administration of a lower dose of orellanine. […] The first case is equivalent to a prolonged exposure of the cells (48 h), whereas the cells in the second case have been allowed to recover in orellanine-free medium for two days between the doses. Viability was measured 96 h after addition of the first orellanine dose.
Cells harvested from the human renal cell carcinoma 786-0 were cultured under standard conditions. When approximately 70% confluent and in rapid growth, the cells were exposed to medium containing a low concentration of Orellanine (20 μg/ml) for 24 h. Then the medium was changed to new medium either containing 20 μg/ml orellanine for 24 h (middle bar) or back to regular, complete medium for 48 h, followed by another 24 h in the presence of 20 μg/ml orellanine (rightmost bar).

[5] = system: cell lines and primary cells from numerous human tissues (tubular epithelium, podocytes, mesangial cells, fibroblasts, macrophages, endothelium, intestinal …); assay: Effects of orellanine on other cell types, viability; assay type: cell-based; settings: 24 h exposure, concentrations up to 1,000 μg/ml (highest achievable), observed six more days
Method: Cell lines and primary cells originated from numerous human tissues (tubular epithelium, podocytes and mesangial cells from renal tissue, fibroblasts, macrophages, aortic endothelium, microvascular endothelium and umbilical chord endothelium, intestinal epithelium (duodenal, jejunal, ileal and colonic) and chondrocytes) were cultured under standard conditions. When approximately 70% confluent and in stable growth, the cells were exposed for 24 h to medium containing orellanine in concentrations selected in order to achieve a dose response. […] To compensate for any growth retarding effects caused by dilution of the culture medium by the large volume of orellanine solution added, all cells were supplemented with equal volumes of orellanine buffer.

kinase inhibitor p21 = assay: Western blot of cell cycle proteins in renal cancer cells: p21; assay type: cell-based, human; settings: 100 μg/ml, harvested 0, 2, 6, 24 h; 786-0 and SKRC-52
Method: (§1) FIG. 5: Effects of orellanine on the cell cycle in renal cell carcinoma (786-0 and SKRC-52) (Western Blot).
(§2) Renal cancer cells, cultured essentially as described in Example 3, were treated with orellanin (100 μg/ml culture medium) for 24 h. During this period cells were harvested after 0, 2, 6 and 24 h exposure. Western blots were performed on the harvested material with antibodies directed against A) the kinase inhibitor p21, B) phosphorylated retinoblastoma protein (a growth stimulating factor), and C) the cdc2 protein which allows the cell to proceed into the M-phase of the cell cycle where the cell divides.

[6] = system: phosphorylated retinoblastoma protein; assay: Western blot of cell cycle proteins in renal cancer cells: phosphorylated Rb; assay type: cell-based, human; settings: 100 μg/ml, 24 h measurement
Method: as §1, §2

cdc2 protein = assay: Western blot of cell cycle proteins in renal cancer cells: cdc2; assay type: cell-based, human; settings: 100 μg/ml, 24 h
Method: as §1, §2

[7] = system: phosphorylated (activated) p38; assay: Western blot of apoptosis pathways in renal cancer cells: p38; assay type: cell-based, human; settings: 100 μg/ml, 24-h observation period; 786-0
Method: (§3) For ERK 1/2 and p38, the ratios of phosphorylated (f) to total protein should be compared. Cleaved caspase 3 should be compared to the loading control, beta actin.
(§4) Renal cancer cells were cultured and exposed to orellanine according to Example 7 and harvested at various times up to 24 h. The p38 MAPK system, the p53 system, Fas Ligand, Tumor Necrosis Factor alpha (TNF) and cleaved caspase 3 are key factors in apoptotic pathways leading to cell death. Western blotting was used to determine intracellular levels of A) p38, B) cleaved caspase 3, and C) the proliferative factor phosphorylated ERK 1/2.

phosphorylated ERK 1/2 = assay: Western blot of apoptosis pathways in renal cancer cells: ERK 1/2; assay type: cell-based, human; settings: 100 μg/ml, up to 24 h; 786-0
Method: as §3, §4

cleaved caspase 3 = assay: Western blot of apoptosis pathways in renal cancer cells: cleaved caspase 3; assay type: cell-based, human; settings: 24 h after exposure; 786-0
Method: as §3, §4

PUMA mRNA = assay: Quantitative PCR of apoptosis mediators in renal cancer cells: PUMA; assay type: cell-based, human; settings: SKRC-52, vs control cells without orellanine
Fas ligand (FasL) mRNA = assay: Quantitative PCR of apoptosis mediators in renal cancer cells: Fas ligand; assay type: cell-based, human; settings: SKRC-52, vs control cells without orellanine
[8] = system: Tumor Necrosis Factor alpha (TNF) mRNA; assay: Quantitative PCR of apoptosis mediators in renal cancer cells: TNF; assay type: cell-based, human; settings: SKRC-52, vs control cells without orellanine
[9] = system: human clear cell cancer (SKRC52); assay: Morphological signs of apoptosis during incubation with orellanine; assay type: cell-based; settings: 4 h and 24 h incubation
[10] = system: human renal carcinoma cells (SKRC-52); assay: Subcutaneous human renal cell carcinoma in athymic rats; assay type: in vivo
Excerpt: (§5) Athymic, T cell-deficient rats (RNU, Charles River Laboratories, FRG) are used as a system for in vivo-growth of human renal cell carcinomas. The absence of a T cell-based immune defense in these animals makes them tolerant towards xenografts. One week after arrival in the animal facility 10 animals receive an X-irradiation dosis of 5 Gy in order to suppress also their B cell-mediated response.
(§6) The next day, all animals are equipped with an indwelling catheter for peritoneal dialysis (PD). PD treatment will replace the renal function that is lost as a side-effect upon administration of orellanine.
(§7) One day later, 5 animals are inoculated subcutaneously in the shoulder region with approximately 10×10^6 human renal carcinoma cells (SKRC-52). The 5 remaining animals receive the same amount of cells by intravenous injection. […] At this point 2 animals (controls) in each group are injected i.p. with physiological saline solution and the remaining 3 animals receive 10 mg orellanine/kg b.w. i.p.

[11] = system: human renal carcinoma cells (SKRC-52); assay: Intravenously inoculated human renal cell carcinoma in athymic rats; assay type: in vivo; settings: 10 mg/kg i.p. then 5 mg/kg i.v. at one and two weeks; terminated another week later
Excerpt: as §5, §6, §7

[12] = Safety of i.v. orellanine during long term treatment with hemodialysis, pigs; settings: 10 mg/kg initial, then 5 mg/kg after dialysis 3 times a week for 8 weeks
Method: (§8) 5 pigs of the Göttingen minipig strain and 5 dogs of mixed breeding (body weight 10-15 kg) are set up for hemodialysis using equipment designed for children and infants. The animals receive initial doses of 10 mg orellanine/kg b.w. 24 h later, the animals are subjected to a dialysis session of approximately 3 h. After dialysis, the animals are injected with 5 mg orellanine/kg b.w. The dialysis/reinjection procedure is repeated 3 times a week (Monday, Wednesday, Friday) for 8 weeks. Once a week an assessment of the animals' general condition is made. At the end of the experiment all animals are terminated, and specimens for histopathological evaluation are taken from heart, lung, kidney, liver, spleen, small intestine, large intestine, brain, muscle and skin.

[13] = Safety of i.v. orellanine during long term treatment with hemodialysis, dogs; settings: 10 mg/kg initial, then 5 mg/kg after dialysis 3 times a week for 8 weeks
Method: as §8

renal carcinoma = assay: Treatment of a human patient with advanced renal cell carcinoma; assay type: in vivo; settings: 10 daily i.v. injections of 280 mg (4 mg/kg), hemodialysis after each, further series as needed
Method: The initial tumor burden of the patient is determined to be approximately 2 kg. Based on this value, the appropriate daily dose is determined to 280 mg (4 mg/kg at b.w. 70 kg). Before the first injection, the patient is prepared for hemodialysis or peritoneal dialysis since the Orellanine treatment will inevitably destroy healthy renal epithelial tissue along with the killing of the cancer cells, thus leaving the patient without renal function. Two hours after each injection, hemodialysis is started and maintained for 2 hours. […] Optionally, if the disease is unilateral, the unaffected kidney may be surgically removed and preserved during the treatment, and reimplantation attempted after conclusion of the treatment. The progress of the patient is monitored for one month, whereafter additional serial administrations of Orellanine are given as needed to inhibit growth of the renal carcinoma.

cortical renal tissue = settings: healthy rats; cited from earlier work

CO[C@@H]1[C@H](O)C[C@@H](O[C@@H]2C[C@H](Oc3cc4cc5c(c(O)c4c(O)c3C)C(=O)[C@@H](O[C@H]3C[C@@H](O[C@H]4C[C@@H](O[C@H]6C[C@](C)(O)[C@@H](OC(C)=O)[C@H](C)O6)[C@H](O)[C@@H](C)O4)[C@H](O)[C@@H](C)O3)[C@H]([C@H](OC)C(=O)[C@@H](O)[C@@H](C)O)C5)O[C@H](C)[C@@H]2OC(C)=O)O[C@@H]1C [Chromomycin A3]
tumor growth [1]: significantly retarded tumor growth

Cc1cc(N(CCOS(C)(=O)=O)CCOS(C)(=O)=O)ccc1C=O [NSC-281612]
effect on tumor mass (renal cancer xenografts): apparently complete eradication of the tumor mass

[O-][n+]1ccc(O)c(O)c1-c1c(O)c(O)cc[n+]1[O-] [Orellanine, 3,3′,4,4′-tetrahydroxy-2,2′-bipyridine-N,N′-dioxide]
toxicity to the tested cell types (viability) [2]: highly toxic to all the tested cell types
dose response interval (orellanine dose vs cell death) [3]: 5 to 200 µg/mL
toxic effects of repeated exposure ([4]; repeated exposure at lower limit of the single exposure response interval (20 μg/ml)): further, marked toxic effects
number of viable cells ([4]; second dose 20 μg/ml 24 h after the first dose): strong decrease in the number of viable cells
number of viable cells ([4]; second dose 20 μg/ml at 72 h): considerably smaller, but still significant, effect
effects on viability [5]: None of the tested cell types exhibited any effects on viability
intracellular levels of p21 (kinase inhibitor p21): increased with a maximum around 6 h
phosphorylated forms of the retinoblastoma protein [6]: completely lacking
cdc2 protein level (cdc2 protein): dramatically down-regulated
phosphorylated (activated) p38 [7]: steady increase
phosphorylated ERK 1/2 (phosphorylated ERK 1/2): up-regulation
amount of cleaved caspase-3 (cleaved caspase 3): dramatically increased
PUMA mRNA expression (PUMA mRNA): extreme up-regulation
FasL mRNA expression (Fas ligand (FasL) mRNA): extreme up-regulation
TNF mRNA expression [8]: extreme up-regulation
typical signs of apoptosis, vacuolization and cell shrinkage [9]: evident already after 4 h incubation, and are further aggravated after 24 h
signs of the tumors ([10]; 10 mg/kg i.p. then 5 mg/kg into the tumor site, another 2 weeks later): no signs of the tumors are evident
tumor size relative to the size recorded at the time of injection ([10]; 10 mg/kg i.p., two weeks after first injection): less than 25%
reduction of tumor size ([10]; former control animals, 10 mg/kg into the tumor site, after 2 weeks): more than 75%
tumor burden relative to control animals [11]: less than 10%
behavior and general condition [12]: remain normal
histopathological examination [12]: no tissue damage with the exception of the kidneys where there is widespread tubular damage leading to complete renal failure
behavior and general condition [13]: remain normal
histopathological examination [13]: no tissue damage with the exception of the kidneys where there is widespread tubular damage leading to complete renal failure
renal cancer at the conclusion of the treatment (renal carcinoma): completely eradicated
expression of several key antioxidant genes (cortical renal tissue): dramatically decreased expression
oxidative stress in cortical renal tissue (cortical renal tissue): increased oxidative stress
